How the values were obtained:
Experiment in all cases: relative viability (nuclei count vs DMSO), 5 days (fraction); higher = more cells survive
[1] = compound: C1CC2=C(C1)C=C(C=C2)OC3=NC(=C4C(=N3)N(C=N4)CC5=CC=C(C=C5)C6=CC=CC=C6)N[C@@H](CC7=CC=CC=C7)CO [QS11] + CC(C)C[C@H](NC(=O)[C@H](Cc1ccccc1)NC(=O)c1cnccn1)B(O)O [Bortezomib] (partner 0.002 µM)
Outline: (§1)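 Five library-drug doses in √10 steps were combined with a fixed anchor-drug dose, or a single drug was given alone, by pin tool to lung cancer cell lines in 1536-well plates the day after seeding. Nuclei were stained and counted after 5 days. Relative viability is the nuclei count in treated wells over that in vehicle wells, taken as the median of duplicate plates.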

[2] = compound: CC1=C(C=C(C=C1)NC(=O)C2=CC(=CC=C2)C(C)(C)C#N)NC3=CC4=C(C=C3)N=CN(C4=O)C [AZ628] + Nc1ncn([C@H]2C[C@H](O)[C@@H](CO)O2)c(=O)n1 [Decitabine] (partner 2 µM)
Outline: as §1

[3] = compound: C[As](C)SC[C@H](NC(=O)CC[C@H](N)C(=O)O)C(=O)NCC(=O)O [Darinaparsin] + CCNC(=O)c1noc(-c2cc(C(C)C)c(O)cc2O)c1-c1ccc(CN2CCOCC2)cc1 [Luminespib] (partner 0.01 µM)
Outline: as §1

[4] = compound: C1CC2=C(C1)C=C(C=C2)OC3=NC(=C4C(=N3)N(C=N4)CC5=CC=C(C=C5)C6=CC=CC=C6)N[C@@H](CC7=CC=CC=C7)CO [QS11] + C[C@@H](Oc1cc(-c2cnn(C3CCNCC3)c2)cnc1N)c1c(Cl)ccc(F)c1Cl [Crizotinib] (partner 1 µM)
Outline: as §1

| Cell Line | relative viability ([1]; first compound 0.08 µM) | relative viability ([1]; first compound 0.253 µM) | relative viability ([1]; first compound 2.53 µM) | relative viability ([1]; first compound 8 µM) | relative viability ([2]; first compound 0.08 µM) | relative viability ([2]; first compound 0.253 µM) | relative viability ([2]; first compound 0.8 µM) | relative viability ([2]; first compound 2.53 µM) | relative viability ([2]; first compound 8 µM) | relative viability ([3]; first compound 0.08 µM) | relative viability ([3]; first compound 0.8 µM) | relative viability ([3]; first compound 2.53 µM) | relative viability ([3]; first compound 8 µM) | relative viability ([4]; first compound 0.08 µM) | relative viability ([4]; first compound 0.253 µM) | relative viability ([4]; first compound 2.53 µM) | relative viability ([4]; first compound 8 µM) | relative viability ([1]; first compound 0.8 µM) | relative viability ([4]; first compound 0.8 µM) |
| --- | --- | --- | --- | --- | --- | --- | --- | --- | --- | --- | --- | --- | --- | --- | --- | --- | --- | --- | --- |
| HCC-15 | 1.06 | 1.16 | 1.03 | 0.982 | 0.633 | 0.521 | 0.426 | 0.481 | 0.29 | 0.461 | 0.253 | 0.326 | 0.467 | 0.807 | 0.927 | 0.803 | 0.779 |  |  |
| ChaGo-K-1 |  | 1.01 | 1.25 | 1.09 | 0.548 | 0.504 | 0.558 | 0.524 | 0.481 | 0.692 | 0.502 | 0.55 | 0.786 |  | 1.24 | 0.957 | 1.23 | 1.17 | 1.26 |
| SK-LU-1 | 1.03 | 1.11 | 1.16 | 1.29 | 0.549 | 0.55 | 0.505 | 0.577 | 0.391 | 0.203 | 0.182 | 0.214 | 0.169 | 1.1 | 0.822 | 0.544 | 0.785 | 1.09 | 0.63 |
| LCLC-103H | 1.04 | 1.1 | 1.07 | 0.891 | 0.71 | 0.728 | 0.726 | 0.641 | 0.601 | 1.14 | 0.876 | 0.882 | 1.22 | 1.01 | 1.08 | 1 | 1.08 | 0.811 | 0.808 |
| RERF-LC-KJ | 1.05 | 1.1 | 0.932 | 0.941 | 0.698 | 0.708 | 0.644 | 0.647 | 0.688 | 1.97 | 1.21 | 1.11 | 1.15 | 0.467 | 0.906 | 0.769 | 0.759 | 0.956 | 0.847 |
| NCI-H2087 | 0.766 | 0.776 | 0.636 | 0.48 | 0.267 | 0.153 | 0.184 | 0.137 | 0.146 | 0.159 | 0.162 | 0.204 | 0.184 | 0.849 | 0.794 | 0.652 | 0.573 | 0.677 | 0.65 |
| LOU-NH91 | 0.494 | 0.491 | 0.488 | 0.437 | 0.814 | 0.811 | 0.801 | 0.816 | 0.749 | 0.407 | 0.31 | 0.306 | 0.345 | 0.713 | 0.709 | 0.694 | 0.744 | 0.417 |  |
| 201T | 1.12 | 1.09 | 1.16 | 0.961 | 0.869 | 0.859 | 0.874 | 0.911 | 0.858 | 1.1 | 1.03 | 0.958 | 1.16 | 1.04 | 1.07 | 1.03 | 0.947 | 0.921 | 0.778 |
| UMC-11 | 0.668 | 0.851 | 1.01 | 0.68 | 0.704 | 0.65 | 0.551 | 0.556 | 0.758 | 1.16 | 0.994 | 1.08 | 1.22 | 0.724 | 0.616 | 0.679 | 0.686 | 0.816 | 0.653 |
| NCI-H1975 | 0.333 | 0.403 | 0.364 | 0.3 | 0.402 | 0.358 | 0.344 | 0.338 | 0.265 | 0.233 | 0.221 | 0.23 | 0.187 | 1.08 | 1.03 | 1.16 | 0.817 | 0.541 | 0.853 |
| SW 1573 | 0.957 | 1.07 | 1.12 | 0.837 | 0.503 | 0.445 | 0.435 | 0.408 | 0.374 | 0.23 | 0.364 | 0.302 | 0.249 | 0.802 | 0.796 | 0.629 | 0.876 | 0.971 | 0.817 |
| NCI-H1792 |  | 1.06 | 1.01 | 1.07 | 0.605 | 0.532 | 0.514 | 0.476 | 0.121 | 0.681 | 0.387 |  | 0.539 |  | 1.06 | 1.11 | 1.33 | 0.684 | 0.662 |
| NCI-H441 | 0.437 | 0.536 | 0.444 | 0.299 | 0.257 | 0.313 | 0.245 | 0.212 | 0.226 | 0.488 | 0.321 | 0.364 | 0.245 | 0.776 | 0.847 | 0.6 | 0.707 | 0.475 | 0.621 |
| NCI-H1915 | 0.985 | 1.08 | 0.967 | 0.979 | 0.271 | 0.259 | 0.267 | 0.254 | 0.169 | 1.04 | 0.795 | 0.625 | 0.827 | 0.926 | 1.13 | 0.824 | 0.815 |  |  |
